Reference: publication PMC6487176, “Specific Binding Peptides from Rv3632: A Strategy for Blocking Mycobacterium tuberculosis Entry to Target Cells?” (BioMed Research International, 2019)
Where no end group is shown, it is not given here.

Key:
Type in all cases: cell-based
[1] = system: Mtb H37Rv entry to U937 macrophages; test: microbe, parasite or virus in culture; details: Mycobacterium tuberculosis, U-937, 480 h, inhibition control at 30 μM, triplicate, read-out: inhibition of mycobacterial entry to U937 monocyte-derived macrophages
[2] = system: Mtb H37Rv entry to A549 alveolar epithelial cells; test: microbe, parasite or virus in culture; details: Mycobacterium tuberculosis, A549, 480 h, inhibition control at 30 μM, triplicate, read-out: inhibition of mycobacterial entry to A549 epithelial cells
U937 macrophage line = details: MTT; peptide 20 and 200 μM in 1X PBS, 2 h; 5 x 10^4 cells/well; absorbance 570 nm
Description: Rv3632 peptides' cytotoxic effect was evaluated by viability assay involving MTT (3- (4,5-dimethylthiazol-2-yl) -2,5-diphenyltetrazolium bromide) tetrazolium reduction, where 5 x 10^4 cells/well were incubated for 2 hours with each peptide at 20 and 200 μM in 1X PBS, using the previously mentioned incubation conditions for the invasion assay; 10% SDS was used as cytotoxicity control. After incubation time had elapsed, 10μL MTT were added to each well and left for 12 hours; the formazan crystals so formed were dissolved with sodium dodecyl sulfate (SDS) for reading absorbance at 570nm on a spectrophotometer (Multiskan GO, Thermo Scientific). Multiskan GO (v. 3.2) software was used for analysing the data.

Compound	inhibition at 30 µM [1]	inhibition at 30 µM [2]	cytotoxic effect on the U937 macrophage line, result in words (U937 macrophage line)
C=C1[C@@H](C)[C@H]2[C@H](Cc3ccccc3)NC(=O)[C@]23[C@H](OC(C)=O)/C=C/[C@@](C)(O)C(=O)[C@@H](C)C/C=C/[C@H]3[C@@H]1O [Cytochalasin, Cytochalasin D]	80%	60%	
TLSTYMRFKDLELRYARIAR [compound 39255]			without having a cytotoxic effect
